In patent US10059973B2, “Carbohydrate esters as inducers for gene expression” (priority 2012, dated 2018):

Assays:
T. reesei Rut-C30 = experiment: Protein (cellulase) induction in T. reesei Rut-C30 shake-flask culture, CMC endo-glucanase activity assay; type: cell-based, Trichoderma reesei; details: for Cellulase activity at day 3 / Cellulase activity at day 3 (specific induction power, U/mg inducer): 2% glucose as carbon source
Description: To prepare for protein induction studies using Trichoderma, a citrate minimal media was first prepared. The media composition, as modified from England et al. (U.S. Pat. […] The final pH was adjusted to 5.50 using NaOH. […] It was obtained from ATCC (56765) and developed as a catabolic de-repressed strain from classic mutagenesis of parent strain NG14 and the wild type […] al., BMC Genomics, 9:327, (2008)). To propagate Trichoderma, the freeze-dried stock from ATCC was first dissolved in sterile deionized water and then transferred onto a PDA (potato dextrose agar) plate (Teknova […]) using a sterile loop. The PDA plate was maintained at room temperature under white fluorescent light and after approximately 7 days, green Trichoderma spores could be seen. In addition, 60% (w/v) glucose stock was prepared and used both as control and as the carbon source for Trichoderma growth. […] Bacteriol., 73:269-278, (1957)).

[1] = test system: Aspergillus niger (NRRL 330); experiment: Protein (amylase) induction in Aspergillus niger culture, amylase activity assay; type: cell-based; details: inducer 0.05 g/L; 1% sorbitol as carbon source; 24 hours after inducer addition
Procedure: The procedure of preparing maltose acetate chemically and subsequent sample recovery follows the same procedure described in Example 4. […] Aspergillus niger (NRRL 330), obtained from ARS culture collection, was maintained on a PDA plate and allowed to sporulate for a week at room temperature. For inoculation, a 2 cm by 2 cm area agar plug was first removed and suspended in 5 mL sterile water. […] After additional 24 hours, the cultures were assayed for amylase activity following similar procedures to those detailed by Barton et al. (J.

[2] = test system: cellulase gene promoter in Trichoderma reesei; details: cited from earlier work
Pullularia pullulans = details: cited from earlier work
Penicillium purpurogenum = details: cited from earlier work

6″ acetylated lactose monoester [Purified lactose monoacetate]
Cellulase activity at day 3 (T. reesei Rut-C30; inducer 0.09 g/L): 2.05 U/mL | Cellulase activity at day 3 (specific induction power, U/mg inducer) (T. reesei Rut-C30; inducer 0.09 g/L): 22.0 U/mg | specific induction activity relative to unmodified lactose (T. reesei Rut-C30; inducer 0.09 g/L, day 3): approximately 34 times | Cellulase activity at day 3 (T. reesei Rut-C30; inducer 0.51 g/L): 10.1 U/mL | Cellulase activity at day 3 (specific induction power, U/mg inducer) (T. reesei Rut-C30; inducer 0.51 g/L): 19.9 U/mg | specific induction activity relative to unmodified lactose (T. reesei Rut-C30; inducer 0.51 g/L, day 3): ~31 times | Cellulase activity at day 3 (T. reesei Rut-C30; inducer 1.05 g/L): 14.0 U/mL | Cellulase activity at day 3 (specific induction power, U/mg inducer) (T. reesei Rut-C30; inducer 1.05 g/L): 13.3 U/mg | specific induction activity relative to unmodified lactose (T. reesei Rut-C30; inducer 1.05 g/L, day 3): ~21 times

OC[C@H]1O[C@H](O[C@H]2[C@H](O)[C@@H](O)[C@H](O)O[C@@H]2CO)[C@H](O)[C@@H](O)[C@@H]1O [Maltose, maltose]
Amylase activity at day 3 [1]: 2.11 U/mL | Amylase activity at day 3 (specific induction power, U/mg inducer) [1]: 44.0 U/mg

CC(=O)OC[C@H]1O[C@@H](O[C@@H]2[C@@H](O)[C@H](O)[C@@H](COC(C)=O)O[C@@H]2O)[C@H](O)[C@@H](O)[C@@H]1O [Purified sophorose diacetate, 6′ and 6″ acetylated alpha-sophorose diester]
Cellulase activity at day 3 (T. reesei Rut-C30; inducer 0.03 g/L): 6.33 U/mL | Cellulase activity at day 3 (specific induction power, U/mg inducer) (T. reesei Rut-C30; inducer 0.03 g/L): 211.0 U/mg | specific induction power relative to sophorose (T. reesei Rut-C30; inducer 0.03 g/L, day 3): ~8 times | Cellulase activity at day 3 (T. reesei Rut-C30; inducer 0.12 g/L): 23.2 U/mL | Cellulase activity at day 3 (specific induction power, U/mg inducer) (T. reesei Rut-C30; inducer 0.12 g/L): 193.3 U/mg | specific induction power relative to unmodified sophorose (T. reesei Rut-C30; inducer 0.12 g/L, day 3): ~7 times

O=C[C@H](O)[C@@H](O)[C@H](O[C@@H]1O[C@H](CO)[C@@H](O)[C@H](O)[C@H]1O)[C@H](O)CO [cellobiose, reference compound]
Cellulase activity at day 3 (T. reesei Rut-C30; inducer 1.0 g/L): 0.34 U/mL | Cellulase activity at day 3 (specific induction power, U/mg inducer) (T. reesei Rut-C30; inducer 1.0 g/L): 0.34 U/mg

OC[C@H]1O[C@@H](O[C@H]2[C@H](O)[C@@H](O)C(O)O[C@@H]2CO)[C@H](O)[C@@H](O)[C@H]1O (stereo partly drawn) [lactose, D-lactose, reference compound]
Cellulase activity at day 3 (T. reesei Rut-C30; inducer 1.0 g/L): 0.64 U/mL | Cellulase activity at day 3 (specific induction power, U/mg inducer) (T. reesei Rut-C30; inducer 1.0 g/L): 0.64 U/mg

OC[C@H]1O[C@@H](O[C@H]2C(O)O[C@H](CO)[C@@H](O)[C@@H]2O)[C@H](O)[C@@H](O)[C@@H]1O (stereo partly shown) [sophorose, reference compound]
Cellulase activity at day 3 (T. reesei Rut-C30; inducer 0.13 g/L): 3.58 U/mL | Cellulase activity at day 3 (specific induction power, U/mg inducer) (T. reesei Rut-C30; inducer 0.13 g/L): 26.9 U/mg | Cellulase activity at day 3 (T. reesei Rut-C30; inducer 1.3 g/L): 15.0 U/mL | Cellulase activity at day 3 (specific induction power, U/mg inducer) (T. reesei Rut-C30; inducer 1.3 g/L): 11.2 U/mg | activity as cellulase inducer relative to cellobiose [2]: 2500 times

Sucrose monopalmitate
induced sucrase yield relative to sucrose (Pullularia pullulans): 80 times

mono-O-acetyl cellobiose
effectiveness at inducing cellulase (in words) (Penicillium purpurogenum): the most active inducer tested
